Like-named read-outs stand apart in the source and are kept apart here.
Tests used:
[1] = system: HEK-293T-ACE2^h cells; experiment: MTT cytotoxicity assay on host cells (4 h); assay type: cell-based, human; conditions: MTT, 4 h
[2] = system: SARS-CoV-2 pseudovirus; experiment: microbe, parasite or virus in culture; conditions: Severe acute respiratory syndrome-related coronavirus, read-out: IC50 (inhibition of pseudovirus entry into host cells)
[3] = system: Beas-2B cells; experiment: MTT cytotoxicity on human normal cell line Beas-2B (24 h); assay type: cell-based; conditions: Homo sapiens, BEAS-2B, 24 h, read-out: IC50 Values of Human Normal Cell Lines, Beas-2B
[4] = system: LO2 cells; experiment: MTT cytotoxicity on human normal cell line LO2 (24 h); assay type: cell-based; conditions: Homo sapiens, L02, 24 h, read-out: IC50 Values of Human Normal Cell Lines, LO2
[5] = system: HEK 293 cells; experiment: MTT cytotoxicity on human normal cell line HEK 293 (24 h); assay type: cell-based; conditions: Homo sapiens, HEK293, 24 h, read-out: IC50 Values of Human Normal Cell Lines, HEK 293
[6] = system: SARS-CoV-2 pseudovirus; conditions: for IC50: read-out: IC50 (inhibition of pseudovirus entry into host cells)

| SMILES | CC0 (maximum nontoxic concentration) [1] | TC50 (concentration reducing cell viability by 50%) [1] | IC50 [2] | IC50 [3] | IC50 [4] | IC50 [5] | SI (ratio of TC50 to IC50) [6] | IC50 [6] |
| --- | --- | --- | --- | --- | --- | --- | --- | --- |
| CC1OC(OC2C(c3c(O)cc(O)c4c(=O)cc(-c5ccc(O)cc5)oc34)OC(CO)C(O)C2O)C(O)C(O)C1O (stereo not drawn) [compound 6, Vitexin-2″-O-rhamnoside] | 300 µM | >500 µM | > 300 µM | – | – | – | – | – |
| O=c1cc(-c2ccc(O)cc2)oc2cc(O)c(O)c(O)c12 [compound 9, Scutellarein] | 200 µM | >300 µM | < 50 µM | > 300 µM | > 300 µM | > 300 µM | >10.25 | 29.3 ± 0.74 µM |
| O=C(O[C@@H]1Cc2c(O)cc(O)cc2O[C@@H]1c1cc(O)c(O)c(O)c1)c1cc(O)c(O)c(O)c1 [compound 25, (-)-Epigallocatechin gallate] | 300 µM | >500 µM | < 50 µM | > 500 µM | 430 ± 6.98 µM | > 500 µM | – | 31.3 ± 7.4 µM |
| O=C(O[C@@H]1Cc2c(O)cc(O)cc2O[C@H]1c1cc(O)c(O)c(O)c1)c1cc(O)c(O)c(O)c1 [compound 26, (-)-Gallocatechin gallate] | 300 µM | >500 µM | < 50 µM | > 500 µM | 433 ± 8.96 µM | > 500 µM | >11.52 | 43.4 ± 2.93 µM |
| Oc1cc(O)c2c(c1)O[C@H](c1ccc(O)c(O)c1)[C@@H](O)[C@@H]2c1c(O)cc(O)c2c1O[C@H](c1ccc(O)c(O)c1)[C@@H](O)C2 [compound 29, Procyanidin B-3] | 300 µM | >500 µM | > 300 µM | – | – | – | – | – |
| Oc1cc(O)c2c(c1)O[C@H](c1ccc(O)c(O)c1)[C@H](O)[C@H]2c1c(O)cc(O)c2c1O[C@H](c1ccc(O)c(O)c1)[C@H](O)C2 [compound 28, Procyanidin B-2] | 300 µM | >500 µM | > 300 µM | – | – | – | – | – |
| Oc1cc(O)c2c(c1)O[C@H](c1ccc(O)c(O)c1)[C@H](O)[C@H]2c1c(O)cc(O)c2c1O[C@H](c1ccc(O)c(O)c1)[C@@H](O)C2 [compound 27, Procyanidin B-1] | 300 µM | >500 µM | > 300 µM | – | – | – | – | – |
| O=c1cc(-c2ccccc2)oc2cc(O)cc(O)c12 [compound 1, Chrysin] | 100 µM | 168.50 ± 12.06 µM | > 100 µM | – | – | – | <1.69 | – |
| O=c1cc(-c2ccc(O)c(O)c2)oc2cc(O)cc(O)c12 [compound 3, Luteolin] | 200 µM | >300 µM | – | > 300 µM | 183 ± 10.3 µM | > 300 µM | – | – |
| O=c1cc(-c2ccc(O)cc2)oc2c([C@@H]3O[C@H](CO)[C@@H](O)[C@H](O)[C@H]3O)c(O)cc(O)c12 [compound 4, Vitexin] | 300 µM | >500 µM | > 300 µM | – | – | – | – | – |
| O=c1cc(-c2ccc(O)cc2)oc2cc(O)cc(O)c12 [compound 2, Apigenin] | 50 µM | 90.88 ± 3.13 µM | > 50 µM | – | – | – | <1.82 | – |

Reference: article PMC9862759 (Viruses, 2023)
